Values joined by “and” are separate entries in the source; they are usually repeats but may differ in a detail not shown here. Identical values can stand only once. “Also recorded” adds a separate entry of the source. Like-named read-outs stand apart in the source and are kept apart here. Blank lines part the entries; values can stand above or below the compound they belong to.
Columns and labels:
[1] = FluoZin-3, background; read-out: Kd(Ca^2+); cited from earlier work
[2] = FluoZin-3, background; read-out: Zn^2+ dissociation constant Kd(Zn^2+); cited from earlier work
[3] = Absorption, fluorescence and solubility properties of ZIMIR-C2 in aqueous solution; type: physicochemical
Protocol: (§1) FIGS. 3A-D. (FIG. 3A) Absorption spectrum of ZIMIR-C2. (FIG. 3B) Zn^2+ dependent fluorescence enhancement of ZIMIR-C2. Zn^2+ concentrations (nM) were 0, 43, 140, 440, 840, 1640 and 6440 (from bottom to top). (FIG. 3C) Zn^2+ titration of ZIMIR-C2 as measured from its emission at 515 nm. The solid line represents the exponential fit. […] All measurements were performed in buffers containing 100 mM Hepes, pH 7.5 with 0.4 μM of ZIMIR-C2.
The inventors synthesized ZIMIR in a total of 8 steps (FIG. 2). […] The absorption maximum of ZIMIR-C2 centered around 493 nm with an extinction coefficient of 73,000 M-1 cm-1. At low nanomolar [Zn^2+], ZIMIR-C2 was nearly non-fluorescent (fluorescence quantum yield Qf (0 Zn^2+) =0.0032) (FIGS. 3A-D). Its fluorescence intensity increased with [Zn^2+]and reached a plateau at micromolar [Zn^2+], with an overall fluorescence enhancement of 70-fold upon Zn^2+ complexation (Qf (Zn^2+) =0.225), providing a Zn^2+ binding dissociation constant of 0.45 μM (FIG. 3C). To confirm that

[4] = Zn2+ titration of ZIMIR-C2 (fluorescence, NTA Zn2+ buffering system); type: binding
Protocol: as §1
Zn^2+ titration and ion selectivity of ZIMIR. To measure the Zn^2+ affinity of ZIMIR, we performed Zn2+ titration of ZIMIR-C2 (0.4 μM) using a Zn^2+ buffering system based on nitrilotriacetic acid (NTA) (Komatsu et al., 2005). The buffer contained 100 mM HEPES (pH 7.5), 10 mM NTA and varying concentrations of ZnSO4 (0-9 mM) to reach free Zn2+ concentration between 0.1 nM to 43 nM. Zn^2+ concentrations above 43 nM were not buffered. However, since the commercial Hepes always contains a trace amount of divalent metal (≦5 ppm), it was necessary to add a minimum amount of NTA to chelate the residual Zn^2+ present in the Hepes solution. […] From that point, increasing amount of ZnSO4 was added to reach higher Zn^2+ concentrations. […] To examine the Zn^2+ binding selectivity of ZIMIR against Ca^2+ or Mg^2+, we measured the fluorescence intensity of ZIMIR-C2 in a nominally Zn^2+ free solution containing 50 μM DPAS or in a solution containing 1 μM ZnCl2, with or without Ca^2+/Mg^2+ (1 mM).

[5] = Zn2+ binding selectivity of ZIMIR-C2 against Ca2+ or Mg2+ (fluorescence intensity); settings: Ca^2+ 1 mM, Mg^2+ 1 mM; with or without 1 μM ZnCl2
Protocol: as §1
Zn^2+ titration and ion selectivity of ZIMIR. To measure the Zn^2+ affinity of ZIMIR, we performed Zn2+ titration of ZIMIR-C2 (0.4 μM) using a Zn^2+ buffering system based on nitrilotriacetic acid (NTA) (Komatsu et al., 2005). The buffer contained 100 mM HEPES (pH 7.5), 10 mM NTA and varying concentrations of ZnSO4 (0-9 mM) to reach free Zn2+ concentration between 0.1 nM to 43 nM. Zn^2+ concentrations above 43 nM were not buffered. However, since the commercial Hepes always contains a trace amount of divalent metal (≦5 ppm), it was necessary to add a minimum amount of NTA to chelate the residual Zn^2+ present in the Hepes solution. […] To examine the Zn^2+ binding selectivity of ZIMIR against Ca^2+ or Mg^2+, we measured the fluorescence intensity of ZIMIR-C2 in a nominally Zn^2+ free solution containing 50 μM DPAS or in a solution containing 1 μM ZnCl2, with or without Ca^2+/Mg^2+ (1 mM).

pancreatic islets = assay: Confocal imaging of dye uptake and insulin/Zn2+ release in pancreatic islets; type: cell-based, mouse; settings: ZIMIR 2 μM for 25 min; mouse and human islets
Protocol: FIGS. 8A-C. Imaging insulin/Zn^2+ release in islets by confocal laser scanning microscopy. (FIGS. 8A-B) Confocal images of mouse islets labeled with ZIMIR (FIG. 8A) or calcein/AM (FIG. 8B). (FIG. 8C) Confocal ZIMIR imaging of insulin/Zn^2+ release in a mouse islet bathed in SAB. Images from two example layers 15 μm apart before and 10 sec post KCl (40 mM) stimulation were shown.
FIG. 11. ZIMIR rapidly labels cells of intact human islets. Representative CLSM images of a ZIMIR labeled human islet at three focal planes 20 μm apart.
Islets labeling and ZIMIR imaging by confocal laser scanning microscopy. Experiments with rodent animals were carried out according to protocols approved by the Institutional Animal Care and Use Committee of University of Texas Southwestern Medical Center. Rodent islets were isolated from Sprague-Dawley rats or C57BL/6 mice after digesting exocrine tissues of pancreas using collagenase as described below. To image insulin release in islets, the inventors labeled islets with ZIMIR (final concentration 2 μM with 0.025% Pluronic) in SAB buffer for […]. Labeled islets were then transferred to an imaging dish that had been coated with 0.5% PuraMatrix peptide hydrogel (BD Biosciences, Cat # 354250). Islets adhered to the PuraMatrix hydrogel within 5 min. They then imaged ZIMIR fluorescence by confocal laser scanning microscopy using a LSM510 imaging system (Carl Zeiss) and a 40× oil immersion objective (Dakin and Li, 2007).
Confocal imaging of ZIMIR uptake and insulin/Zn^2+ release in pancreatic islets. In addition to cultured cells, ZIMIR also rapidly and noninvasively labels cells in preparations such as dissected pancreatic islets. After loading islets with ZIMIR (2 μM) for 25 min, the inventors applied CLSM to track the distribution of ZIMIR in three dimensions (3D). […] The result confirmed that ZIMIR readily diffused through the interstitial space to reach interior cells, whereas calcein/AM was trapped by cells in the outer layer, unable to penetrate any deeper. After labeling, the inventors depolarized cells with high concentration of KCl.

[6] = Competition assay of Zn2+ chelation kinetics (ZIMIR-C2 fluorescence decline after adding EDTA or DPAS); settings: physiological salines, ZIMIR-C2 1 μM in Hanks Balanced Saline Solution
Protocol: FIG. 10. […] In this competition assay, fluorescence intensity (Ex 490 nm, Em 525 nm) of ZIMIR-C2 (1 μM) in Hanks Balanced Saline Solution was recorded. The rate of fluorescence intensity decline after adding EDTA or DPAS reflects the kinetics of EDTA/Zn^2I or DPAS/Zn^2+ complexation.

INS-1 cells = assay: Response of membrane-anchored ZIMIR to extracellular Zn2+ and decay upon Zn2+ washout; type: cell-based, rat; settings: INS-1 cells labeled with ZIMIR, EDTA 10 μM plus DPAS at low micromolar concentrations
Protocol: FIGS. 5A-B. Membrane anchored ZIMIR reports changes of [Zn^2+]e. (FIG. 5A) Example fluorescence images (Excitation 488±7.5 nm, emission 530±20 nm) of INS-1 cells labeled with ZIMIR at different [Zn^2+]e. (FIG. 5B) Quantification of the average ZIMIR fluorescence intensity along the plasma membrane (IZIMIR(PM)).
(FIG. 7A) Time courses of IZIMIR(PM) decay after washing INS-1 cells (initially bathed in FIBS containing 1 μM Zn^2+) with HBS containing EDTA (10 μM) and DPAS (0-8 μM). (FIG. 7B) ZIMIR imaging of insulin/Zn^2+ release of MIN6 cells bathed in SAB containing EDTA (10 μM) and DPAS (4 μM). Time courses of IZIMIR(PM) fluctuation of four separate regions of interest (ROI 1-4) and example ZIMIR images at different time points were shown (a-e; arrow heads highlighting local ZIMIR increases in separate ROIs at different time).
To characterize the response of membrane anchored ZIMIR to changes of extracellular Zn^2+ concentration ([Zn^2+]), the inventors varied [Zn^2+]e from low nanomolar to micromolar, using Zn^2-1 buffers containing nitrilotriacetic acid (for [Zn^2+]e<100 nM) (Hirano et al., 2000) or histidine (for [Zn^2+]e. 100 nM) (Hauser and Tsien, 2007). After recording fluorescence images at different [Zn^2+]e levels, the inventors washed cells with a nominally Zn^2+ free SAB containing 0.2 mM DPAS and followed the decay of IZIMIR(PM).
Upon membrane depolarization, ZIMIR signal increased immediately and reached a plateau before it gradually declined (FIGS. 6E-F). Unexpectedly, however, in some occasions, ZIMIR signal remained elevated even after the inventors lowered KCl concentration to the resting level (5 mM) (FIG. 9). […] In INS-1 beta cells labeled with ZIMIR, after recording ZIMIR fluorescence in solutions containing ˜1 μM of Zn2+, the inventors perifused cells with a nominally Zn^2+-free solution containing only EDTA (10 μM), or with both EDTA (10 μM) and different concentrations of DPAS.

Compound: COc1ccc(N(CC(=O)O)CC(=O)O)c(OCCOc2cc(-c3c4cc(F)c(=O)cc-4oc4cc(O)c(F)cc34)ccc2NCC(=O)O)c1 [FluoZin-3]
Kd [1]: ~10000 nM | Kd [2]: 15 nM

absorption maximum ([3]; 100 mM Hepes, pH 7.5): around 493 nm | aqueous solubility ([3]; aqueous solutions): highly soluble | extinction coefficient ([3]; at absorption maximum): 73,000 M-1 cm-1 | fluorescence quantum yield Qf (0 Zn^2+) ([3]; low nanomolar [Zn^2+]): 0.0032 | fluorescence quantum yield Qf (Zn^2+) ([3]; upon Zn^2+ complexation, micromolar [Zn^2+]): 0.225 | Kd ([4]; 0.4 μM ZIMIR-C2, 100 mM HEPES pH 7.5, two independent titrations, read-out: Kd(Zn^2+), independent Zn^2+ titrations): 433 nM and 467 nM | Kd ([4]; FIG. 3C, emission at 515 nm, read-out: Zn^2+ binding dissociation constant): 450 nM | Kd ([4]; average of two titrations, 100 mM HEPES pH 7.5, read-out: average Kd(Zn^2+)): 450 nM
Compound: CCN(CC(=O)O)Cc1c2oc3c(CN(CC)CC(=O)O)c(O)ccc3c(-c3cc(NCCN(CCc4ccccn4)Cc4ccccn4)ccc3C(=O)O)c-2ccc1=O [ZIMIR-C2]
overall fluorescence enhancement upon Zn^2+ complexation ([4]; plateau at micromolar [Zn^2+]): 70 fold | effect of Ca^2+ and Mg^2+ on fluorescence / Zn^2+ selectivity [5]: neither Ca^2+ nor Mg^2+ affected ZIMIR-C2 fluorescence; also recorded: binds Zn^2+ selectively against Ca^2+ (1 mM) and Mg^2+ (1 mM)

Compound: calcein/AM [reference compound]
distribution of dye in islets (3D, CLSM) (pancreatic islets): only labeled cells of the superficial layers

Compound: O=S(=O)(O)CCN(Cc1ccccn1)Cc1ccccn1 [DPAS, 2-[Bis(2-pyridinylmethyl)amino]-ethanesulfonic acid]
Zn^2+ chelation kinetics compared with EDTA [6]: much faster kinetics than EDTA | increase of the rate of Zn^2+ dissipation from the plasma membrane (INS-1 cells): about one order of magnitude

Source: patent US8530183B2, “Zinc sensors for cellular imaging” (The Board of Regents of the University of Texas System, priority 2010, dated 2013)
